This note sets out measurements from ChEMBL document CHEMBL5360643, “Cyclic Peptides from the Opportunistic Pathogen Basidiobolus meristosporus” (J Nat Prod, 2023).

Each structure is given as a SMILES string. ≈ marks a conversion by molar mass, not a printed value.

The nature of data set [1]: Cytotoxicity against human HEK293T cells assessed as reduction in cell viability incubated for 24 hrs by CCK-8 assay. In kind it is toxicity, cell-based, HEK-293T. On the technique in general: Formazan colour is commonly taken as a measure of viable cells.
The nature of data set [2]: Cytotoxicity against mouse RAW264.7 cells assessed as reduction in cell viability incubated for 24 hrs by CCK-8 assay. In kind it is toxicity, cell-based.
Data set [3] can be described thus: Cytotoxicity against human HepG2 cells assessed as reduction in cell viability incubated for 24 hrs by CCK-8 assay. Type of data set: toxicity, cell-based.

On to `CC(C)C[C@H]1NC(=O)[C@H](Cc2ccccc2)NC(=O)[C@H](Cc2c[nH]c3ccccc23)NC(=O)[C@@H](C(C)C)NC(=O)[C@H](C(C)C)NC(=O)[C@@H](C)NC1=O`, for which the results for the half-inhibitory concentration (IC50) at 24 h in data set [1], in data set [2] and in data set [3] were 150 µg/mL (≈ 210 µM), 7.7 µg/mL (≈ 10.8 µM) and 125 µg/mL (≈ 174 µM), respectively.

With `CC[C@H](C)[C@@H]1NC(=O)[C@H](Cc2ccccc2)NC(=O)[C@@H]2C[C@]3(O)c4ccccc4N[C@H]3N2C(=O)[C@H]([C@@H](C)O)NC(=O)[C@@H](Cc2ccc(O)cc2)NC1=O`, the IC50 at 24 h in data set [1] stood at 148 µg/mL (≈ 203 µM); in data set [2], 182 µg/mL (≈ 251 µM); in data set [3], 110 µg/mL (≈ 151 µM).

On to `CC[C@H](C)[C@@H]1NC(=O)[C@H](Cc2ccccc2)NC(=O)[C@H](Cc2c[nH]c3ccccc23)NC(=O)[C@@H]([C@@H](C)O)NC(=O)[C@@H](Cc2ccc(O)cc2)NC1=O`, for which the IC50 at 24 h in data set [1] was 6 µg/mL (≈ 8.44 µM); in data set [2] it was 17.2 µg/mL (≈ 24.2 µM); in data set [3] it was 29.6 µg/mL (≈ 41.6 µM).

For `COc1cc([C@@H]2c3cc4c(cc3[C@H](O)[C@H]3COC(=O)[C@H]23)OCO4)cc(OC)c1OC` [PODOFILOX], the IC50 at 24 h in data set [1] was 20 µg/mL (≈ 48.3 µM); in data set [2], 61.3 µg/mL (≈ 148 µM); in data set [3], 19.6 µg/mL (≈ 47.3 µM).

For orientation: IC50 means the concentration that gives 50% inhibition.
